Measurements taken from patent US11427548B2 (Arvinas Operations, Inc., priority 2015, dated 2022).
Like-named read-outs stand apart in the source and are kept apart here.

Biological target: T1, Androgen Receptor (Homo sapiens, UniProt P10275)
T1 construct: endogenous in cells; host or cells: VCaP cells
T1 sequence (P10275 1-920): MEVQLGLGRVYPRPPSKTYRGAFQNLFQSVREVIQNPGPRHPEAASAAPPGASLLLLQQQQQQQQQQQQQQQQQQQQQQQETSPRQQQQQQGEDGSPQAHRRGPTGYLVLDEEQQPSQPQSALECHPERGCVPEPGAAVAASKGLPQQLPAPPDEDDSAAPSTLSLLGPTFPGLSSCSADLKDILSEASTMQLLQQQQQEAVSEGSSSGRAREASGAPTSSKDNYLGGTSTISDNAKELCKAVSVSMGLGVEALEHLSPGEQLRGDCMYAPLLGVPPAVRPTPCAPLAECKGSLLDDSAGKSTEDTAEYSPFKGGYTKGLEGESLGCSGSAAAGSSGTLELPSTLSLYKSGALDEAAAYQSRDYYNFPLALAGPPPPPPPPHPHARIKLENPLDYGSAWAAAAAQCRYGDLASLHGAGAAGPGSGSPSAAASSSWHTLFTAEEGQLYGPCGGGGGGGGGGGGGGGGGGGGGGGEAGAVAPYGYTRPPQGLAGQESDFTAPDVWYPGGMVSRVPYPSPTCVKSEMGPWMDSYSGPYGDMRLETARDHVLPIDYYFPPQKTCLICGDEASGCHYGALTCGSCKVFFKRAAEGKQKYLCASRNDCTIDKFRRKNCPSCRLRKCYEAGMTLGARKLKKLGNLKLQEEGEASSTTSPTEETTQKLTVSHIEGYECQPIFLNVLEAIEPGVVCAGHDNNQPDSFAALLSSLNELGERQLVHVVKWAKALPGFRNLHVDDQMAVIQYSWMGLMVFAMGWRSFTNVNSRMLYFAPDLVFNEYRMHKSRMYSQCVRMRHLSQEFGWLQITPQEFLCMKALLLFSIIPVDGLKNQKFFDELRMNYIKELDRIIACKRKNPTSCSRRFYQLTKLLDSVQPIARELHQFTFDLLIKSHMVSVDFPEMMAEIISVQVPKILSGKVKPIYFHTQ
Test: Androgen Receptor ELISA assay (PathScan AR ELISA) in VCaP cells: AR degradation, Dmax and DC50
Type: cell-based
Conditions: for Dmax: VCaP, read-out: VCaP Dmax (%); for DC50: read-out: VCaP DC50
Protocol: 1. Androgen Receptor ELISA Assay.
The protocols used with VCaP cells are described below. The androgen receptor ELISA assay was performed using PathScan AR ELISA (Cell Signaling Catalog #12850) according to the following assay steps:
VCaP cells are seeded at 30,000 cells/well at a volume of 200 μL/well in VCaP assay medium [Phenol red free RPMI (Gibco Cat #11835-030); 5% Charcoal Stripped (Dextran treated) FBS (Omega Scientific, Cat #FB-04); Pen/Strep Life Technologies (Gibco Cat #: 10378-016); 0.1 nM R1881 (Sigma, Cat #R0908) is added upon the start of the assay, not during initial plating of the cells) in Corning 3904 plates. The cells are grown for a minimum of 3 days.
First, cells are dosed with compounds diluted in 0.1% DMSO—use a polypropylene plate according to the following protocol: (1)(i) make 1000× stock plate in DMSO; (ii) 20 mM stock diluted 1/6.7 with DMSO (5 μL+28.3 μL DMSO)=3 mM into row H; (iii) perform serial dilutions in ½ log doses (10 μL of PROTAC+20 μL DMSO) from row H towards row B. Reserve row A for DMSO; (iv) 7 doses total (final concentration in this 1000× plate will be 3 mM, 1 mM, 333 μM, 111 μM, etc). (2)(i) Make 10× stock plate in media; (ii) transfer 2.5 μL of the 1000× stock to a new 10× stock plate (use 12 channel pipet, start at A (DMSO control) work thru H. When 247.5 μL of media is added to this plate, it will serve as a 10× stock; (iii) make media+1 nM R1881 for making 10× stock plate; (iv) add 247.5 μL of media with 1 nM R1881 to each well of the 10× stock plate, mix.
Then 22 μL of 10× stock is added to cells and incubated for 24 h. 1× Cell Signaling Cell lysis buffer is made (Catalogue #9803; comes with the kit)—prepare for 50 μL/well. Keep on ice. Media is aspirated, and 50 μL 1× cell lysis buffer/well is added. The cells are placed on ice for 10 minutes. The solution is mixed and transferred to PCR plate, and centrifuged at 4C for 10 minutes at 4000 rpm.
5 μL is transferred to fresh plate (use immediately or freeze −80 C); 115 μL ELISA Dilutant is added (0.15 ug/ml-0.075 ug/ml; comes with the PathScan ELISA).
Add 100 μL/well AR Elisa; cover and shake, 37 C for 2 hrs; dump, tap, wash 4×200 μL ELISA wash buffer; add 100 μL/well mouse AR detection Ab; cover and shake, 37 C for 1 hr; dump, tap, wash 4×200 μL ELISA wash buffer; add 100 μL/well anti-mouse—HRP conjugated Ab (comes with the kit); cover and shake, 37 C for 30 min; allow TMB reagent to come to room temperature; dump, tap, wash 4×200 μL Elisa wash buffer; tap; add 100 μL TMB, shake 5 min—while watching color. Add the stop reagent when light blue color develops. Add 100 μL Stop solution; shake and read at 450 nm.

[1] = concentration that caused 50% Androgen Receptor degradation, VCaP cells (Table 32)

Structure (SMILES) | Dmax | DC50 (VCaP cells, Table 35) | DC50 (VCaP cells, Table 36) | DC50 [1]
Cc1ncsc1-c1ccc([C@H](C)NC(=O)[C@@H]2C[C@@H](O)CN2C(=O)[C@@H](NC(=O)COc2ccc(O[C@H]3CC[C@H](Oc4ccc(N5C(=S)N(c6ccc(C#N)c(C(F)(F)F)c6)C(=O)C5(C)C)cc4)CC3)nc2)C(C)(C)C)cc1 (racemic) [Example 421] | 26 to 50% | 51 to 500 nM | – | –
Cc1nccn1-c1ccc([C@H](C)NC(=O)[C@@H]2C[C@@H](O)CN2C(=O)C(C(C)C)n2cc(OCCCOCCCCCOc3ccc(N4C(=S)N(c5ccc(C#N)c(C(F)(F)F)c5)C(=O)C4(C)C)cc3)cn2)nc1 (mixture of isomers) [Example 423] | < 25% | > 501 nM | – | –
Cc1ncsc1-c1ccc(CNC(=O)[C@@H]2C[C@@H](O)CN2C(=O)[C@@H](C(C)C)n2cc(OCCCOCCCCCOc3ccc(N4C(=S)N(c5ccc(C#N)c(C(F)(F)F)c5)C(=O)C4(C)C)cc3)cn2)nc1 (racemic) [Example 431] | < 25% | > 501 nM | – | –
Cc1ncsc1-c1ccc(CNC(=O)[C@@H]2C[C@@H](O)CN2C(=O)[C@@H](C(C)C)n2cc(OCC#CC#CCOc3ccc(N4C(=S)N(c5ccc(C#N)c(C(F)(F)F)c5)C(=O)C4(C)C)cc3)cn2)cc1 (racemic) [Example 616, 1-(2-(4-((6-(4-(3-(4-cyano-3-(trifluoromethyl)phenyl)-5,5-dimethyl-4-oxo-2-thioxoimidazolidin-1-yl)phenoxy)hexa-2,4-diyn-1-yl)oxy)-1H-pyrazol-1-yl)-3-methylbutanoyl)-4-hydroxy-N-(4-(4-methylthiazol-5-yl)benzyl)pyrrolidine-2-carboxamide] | < 25% | – | > 501 nM | –
Cc1ncsc1-c1ccc(CNC(=O)[C@@H]2C[C@@H](O)CN2C(=O)[C@@H](NC(=O)COC(C)CCCOc2ccc(-c3ccc(N4C(=S)N(c5ccc(C#N)c(C(F)(F)F)c5)C(=O)C4(C)C)cc3)cc2)C(C)(C)C)cc1 (stereo in doubt) [Example 147, (2S,4R)-1-[(2S)-2-(2-{[(2S)-5-[4-(4-{3-[4-cyano-3-(trifluoromethyl)phenyl]-5,5-dimethyl-4-oxo-2-sulfanylideneimidazolidin-1-yl}phenyl)phenoxy]pentan-2-yl]oxy}acetamido)-3,3-dimethylbutanoyl]-4-hydroxy-N-{[4-(4-methyl-1,3-thiazol-5-yl)phenyl]methyl}pyrrolidine-2-carboxamide] | > 71% | – | – | < 50 nM
Cc1ncsc1-c1ccc(CNC(=O)[C@@H]2C[C@@H](O)CN2C(=O)[C@@H](NC(=O)COC(C)CCCOc2ccc(-c3ccc(N4C(=S)N(c5ccc(C#N)c(C(F)(F)F)c5)C(=O)C4(C)C)cc3)cc2)C(C)(C)C)cc1 (stereo in doubt) [Example 148, (2S,4R)-1-[(2S)-2-(2-{[(2R)-5-[4-(4-{3-[4-cyano-3-(trifluoromethyl)phenyl]-5,5-dimethyl-4-oxo-2-sulfanylideneimidazolidin-1-yl}phenyl)phenoxy]pentan-2-yl]oxy}acetamido)-3,3-dimethylbutanoyl]-4-hydroxy-N-{[4-(4-methyl-1,3-thiazol-5-yl)phenyl]methyl}pyrrolidine-2-carboxamide] | > 71% | – | – | < 50 nM
Cc1ncsc1-c1ccc(CNC(=O)[C@@H]2C[C@@H](O)CN2C(=O)C(C(C)C)n2cc(Oc3cccc(OCCCCCOc4ccc(N5C(=S)N(c6ccc(C#N)c(C(F)(F)F)c6)C(=O)C5(C)C)cc4)c3)cn2)cc1 (stereo in doubt) [Example 602, (2S,4R)-1-((R)-2-(4-(3-((5-(4-(3-(4-cyano-3-(trifluoromethyl)phenyl)-5,5-dimethyl-4-oxo-2-thioxoimidazolidin-1-yl)phenoxy)pentyl)oxy)phenoxy)-1H-pyrazol-1-yl)-3-methylbutanoyl)-4-hydroxy-N-(4-(4-methylthiazol-5-yl)benzyl)pyrrolidine-2-carboxamide] | – | – | > 501 nM | –
